Data on ten compounds can be found in patent USRE29469E, “Hydroxylated 15-deoxy derivatives of 9-hydroxyl-13-trans-prostenoic acid” (American Cyanamid Company, priority 1976, dated 1977).

Assay [1] deals with bronchospasms elicited by 5-hydroxytryptamine. As to the kind of experiment: Bronchodilator activity (Konzett assay) against 5-hydroxytryptamine. It counts as in vivo, guinea pigs. Particulars: guinea pig, three cumulative intravenous doses; for ED50: Cavia porcellus, read-out: ED50, spasmogenic agent 5-hydroxytryptamine. Here is the method:
(§1) Bronchodilator activity was determined in guinea pigs against bronchospasms elicited by intravenous injections of 5-hydroxytryptamine, histamine or acetylcholine by the Konzett procedure, [See J. Lulling, P. Lievens, F. El Sayed and J. Prignot, Arzneimittel-Forschung, 18, 995 (1968).]
(§2) In the Table which follows bronchodilator activity for representative compounds of this invention against one or more of the three spasmogenic agents is expressed as an ED50 determined from the results obtained with three logarithemic cumulative intravenous dose.

Assay [2] relates to ulcerogenic properties of indomethacin. As to the kind of experiment: Anti-ulcerogenic effect (protection against the ulcerogenic properties of indomethacin). The assay is classed as in vivo, rats. Particulars: indomethacin 20 mg./kg s.c. Here is the method: The compounds of this invention also provide protection against the ulcerogenic properties of indomethacin. This assay was carried out in the following manner.
Rats were starved for 48 hours (water was given ad libitum). Indomethacin (20 mg./kg. of body weight) was administered by the subcutaneous route and one-half the dose of the test compound was administered by gavage at the same time. After 3 hours, the second half of the test compound was administered also by gavage. Five hours after the administration of indomethacin the animals were decapitated and the stomachs removed. The stomachs were washed with distilled water, blotted on gauze, cut along the larger curvature, and the contents rinsed with distilled water. The stomachs were spread out, pinned on a cork and visualized under magnifying glass for ulcers. The criteria for scoring of .[.ulers.]. .Iadd.ulcers .Iaddend. was as previously reported. [Abdel-Galil et al. Brit. J. Pharmac. Chemotherapy 33:1-14 (1968)]. […]
1- Petechial hemorrhage or pin point ulcers
3- Many ulcers, a few large
4- Many ulcers, mainly large
A difference of at least 0.7 unit between the scores for control animals (treated with indomethacin but not test compound) and animals treated with indomethacin and test compound is considered indicative of activity for the test compound. (Control animals treated with neither indomethacin nor test compound give scores of about 0.5-0.8.) The results obtained in this assay with typical compounds of the present invention are set forth in Table I below.

For assay [3], the system named is bronchospasms elicited by acetylcholine. In words: Bronchodilator activity (Konzett assay) against acetylcholine. It counts as in vivo, guinea pigs. Particulars: Cavia porcellus, guinea pig, three cumulative intravenous doses, read-out: ED50, spasmogenic agent choline. Here is the method: as §1, §2
In another assay the test system is gastric acid secretion. As to the kind of experiment: Inhibition of gastric acid secretion (modified Shay rat procedure). The assay is classed as in vivo, rats (male, CFE strain). Particulars: 3 hours; for inhibition in vivo at 50 mg/kg: intraduodenal dose 50 mg./kg of body weight. Here is the method: The novel compounds of the present invention are also effective inhibitors of gastric acid secretion and of ulcer development in experimental animals, and thus are potentially valuable as agents for the control of gastric acid secretion and of gastric erosion and as anti-ulcer agents. Gastric acid secretion inhibitory action is usually measure by the "Shay rat" procedure^(1,2) with some modifications as follows.
The rats (male, CFE strain) were starved for 48 hours (water was given ad libitum) to permit evacuation of stomach contents. On the morning of the experiment, under ether anesthesia, the abdominal region was shaved and a midline incision (1-11/2 inches) was made with a scapel. With the help of a closed curved hemostate the duodenum was picked up. Upon getting the duodenum into view, fingers were used to pull the stomach through the opening, the stomach was then gently manipulated with fingers to rid the stomach of air and residual matter which were pushed through the pylorus. Two-5 inch sutures were drawn under the pyloric-duodenal puncture. A ligature, at the juncture, was formed with one of the threads. The second ligature was also formed but not tightened.
The test compound and the vehicle, usually 1 ml./100 g. body weight, were injected into the duodenum as close as possible to the first ligature. After injection the second ligature was tightened below the injection site to minimize leakage. The stomach was placed back through the opening into the abdominal cavity, the area of incision was washed with saline and the incision was closed with autoclips. (Occasionally, instead of an intraduodenal injection, animals were dosed by the oral or subcutaneous route. In the latter case, dosing was done 30 to 60 minutes before the operation.)
The abdominal cavity was exposed by cutting with scissors and the esophagus close to the stomach was clamped off with a hemostat, the stomach was removed by cutting above the hemostat (the .[.espphagus.]. .Iadd.esophagus .Iaddend.was cut) and between the two sutures. Extraneous .[.tisue.]. .Iadd.tissue .Iaddend.was removed, the stomach washed with saline and blotted on gauze. A slit was carefully made in the stomach which was held over a funnel and the contents were collected in a centrifuge tube. The stomach was further cut along the outside edge and turned inside out. Two ml. H2 O were used to wash the stomach contents into the respective centrifuged tube. The combined stomach contents and wash were then centrifuged out for 10 min. in the International Size 2 Centrifuge (setting at 30). The supernatant was collected, volume measured and recorded, 2 drops of a phenylphthalein indicator (1% in 95% ethanol) were added and the solution was titrated with 0.02N NaOH (or with 0.04N NaOH when large volumes of stomach contents were encountered to pH 8.4 (because of usual coloring of the stomach contents, phenolphthalein was only used to permit visual indication that the end point was near) and the amount of acid present was calculated.
Compounds inducing inhibition of gastric acid secretion of 20% or more were considered active. In a representative operation, and merely by way of illustration, the results obtained with this assay with typical compounds of the present invention are given in Table II below.

In assay [4] the test system is bronchospasms elicited by histamine. As to the kind of experiment: Bronchodilator activity (Konzett assay) against histamine. The note with it: guinea pig, three cumulative intravenous doses; for ED50: Cavia porcellus, read-out: ED50, spasmogenic agent histamine. The assay is classed as in vivo, guinea pigs. Here is the method:
as §1, §2

The mark [5] stands for this setting: Rattus norvegicus, read-out: Percent Inhibition.
Setting [6] is: Rattus norvegicus, intraduodenal dose 100 mg./kg of body weight, read-out: Percent Inhibition.
Where [7] appears, read: total oral dose 50 mg./kg, control score 2.3, scale 0 (normal stomach) to 4 (many ulcers, mainly large).

As for `CCCC(O)CC/C=C/[C@H]1[C@H](O)CC(=O)[C@@H]1CCCCCCC(=O)O` (relative stereo) [9-oxo-11α,17-dihydroxy-13-trans-prostenoic acid], the values for the ED50 in assay [1], in assay [3] and in assay [4] were 0.235 mg/kg, 0.518 mg/kg and 0.45 mg/kg, respectively. For the same compound, in assay [2] (total oral dose 25 mg./kg, control score 2.7, scale 0-4), the Score treated was found to be 1.3. Further, the inhibition in vivo at 50 mg/kg in the assay on gastric acid secretion (setting [5]) is 73%.
In the case of `CCOC(=O)CCCCCC[C@@H]1C(=O)CC[C@H]1/C=C/CCCCO` (relative stereo) [ethyl 20-hydroxy-9-oxo-18,19-dinor-13trans-prostenoate], in the assay on gastric acid secretion (setting [6]), the inhibition in vivo at 100 mg/kg worked out at 49%.
Consider `CCCCC(O)CCC[C@H]1CCC(=O)[C@@H]1CCCCCCC(=O)O` (stereo partly shown) [9-oxo-16-hydroxy-prostanoic acid, 16-hydroxy-9-oxo-prostanoic acid], for which the results for the ED50 in assay [1] and in assay [3] were 0.0927 mg/kg and 1.13 mg/kg, respectively. For the same compound, the Score treated in assay [2] (setting [7]) stood at 1.3. For the same compound, the inhibition in vivo at 50 mg/kg in the assay with gastric acid secretion (setting [5]) worked out at 58%.
As for “9-oxo-18-hydroxy-19-hydroxy-13-trans-prostenoic acid”, the “ED50, spasmogenic agent 5-hydroxytryptamine” value in assay [1] is 1.19 mg/kg. For the same compound, in the assay on gastric acid secretion (intraduodenal dose 100 mg./kg of body weight), the “Percent Inhibition” value came out at 28%. For the same compound, in assay [4], the “ED50, spasmogenic agent histamine” value was 1.04 mg/kg.
Turning to `O=C(O)CCCCCC[C@@H]1C(=O)CC[C@H]1/C=C/CCCCO` (relative stereo) [20-hydroxy-9-oxo-18,19-dinor-13-trans-prostenoic acid], the 50% effective dose (ED50) in assay [1] stood at 2.85 mg/kg; in assay [3], 10 mg/kg; in assay [4], 2.22 mg/kg. In the assay on gastric acid secretion (setting [5]), the inhibition in vivo at 50 mg/kg was 21%.
`O=C(O)CCCCCC[C@H]1C(=O)C[C@@H](O)[C@@H]1/C=C/CCCCCCO` (relative stereo) [11α ,20-dihydroxy-9-oxo-13-trans-prostenoic acid]: the ED50 was determined as 0.377 mg/kg in assay [1], 2.34 mg/kg in assay [3] and 0.077 mg/kg in assay [4].
Regarding `O=C(O)CCCCCC[C@H]1C(=O)C=C[C@@H]1/C=C/CCCCCCO` (relative stereo) [20-hydroxy-9-oxo-10,13-trans-prostadienoic acid], the results for the 50% effective dose (ED50) in assay [1] and in assay [4] were 1.32 mg/kg and 2.28 mg/kg, respectively. Moreover, the inhibition in vivo at 50 mg/kg in the assay with gastric acid secretion (setting [5]) was determined as 91%.
Consider `CCCCC(O)C/C=C/[C@H]1CCC(=O)[C@@H]1CCCCCCC(=O)O` (relative stereo) [16-hydroxy-9-oxo-13-trans-prostenoic acid], for which, in assay [2] (setting [7]), the Score treated is 1.2. In addition, the ED50 in assay [3] amounted to 0.455 mg/kg; in assay [4], 0.0346 mg/kg. The inhibition in vivo at 50 mg/kg in the assay with gastric acid secretion (setting [5]) was 67%.
With `CCCCC(O)C/C=C/[C@H]1[C@H](O)CC(=O)[C@@H]1CCCCCCC(=O)O` (relative stereo) [9-oxo-11α ,16-dihydroxy-13-trans-prostenoic acid], the median effective dose (ED50) in assay [1] came to 0.000607 mg/kg; in assay [3], 0.00042 mg/kg; in assay [4] it was 0.166 mg/kg. Further, the Score treated in assay [2] (total oral dose 0.18 mg./kg, control score 3.0, scale 0-4) worked out at 2.5; in assay [2] (total oral dose 0.39 mg./kg, control score 3.0, scale 0-4) it was 2.0; in assay [2] (total oral dose 0.78 mg./kg, control score 3.0, scale 0-4), 1.5; in assay [2] (total oral dose 1.56 mg./kg, control score 2.5, scale 0-4), 1.0; in assay [2] (total oral dose 4.4 mg./kg, control score 3.0, scale 0-4), 1.0; in assay [2] (total oral dose 12.5 mg./kg, control score 3.0, scale 0-4), 1.0. In addition, the inhibition in vivo at 0.4 mg/kg with gastric acid secretion (Rattus norvegicus, dose 0.4* mg./kg of body weight (asterisk not explained), read-out: Percent Inhibition) was determined as 27%. Further, the inhibition in vivo at 0.8 mg/kg in the assay on gastric acid secretion (Rattus norvegicus, dose 0.8* mg./kg of body weight (asterisk not explained), read-out: Percent Inhibition) was 53%. The inhibition in vivo at 1.6 mg/kg in the assay with gastric acid secretion (Rattus norvegicus, dose 1.6* mg./kg of body weight (asterisk not explained), read-out: Percent Inhibition) was 79%.
Consider `O=C(O)CCCCCC[C@H]1C(=O)CC[C@@H]1/C=C/CCCCCCO` (relative stereo) [20-hydroxy-9-oxo-13-trans-prostenoic acid], for which the ED50 was found to be 0.117 mg/kg in assay [1], 2.16 mg/kg in assay [3] and 0.03 mg/kg in assay [4]. Also, in the assay on gastric acid secretion (setting [6]), the inhibition in vivo at 100 mg/kg is 56%.

As a reminder, the ED50 is the dose at which the effect has come halfway, by size or by number of responders.
